Test results: US20230399312A1, “SUBSTITUTED PYRIMIDINES AND METHODS OF USE” (THERAVANCE BIOPHARMA R&D IP, LLC, priority 2020, published 2023)

Tests used:
[1] = biological target: T1, recombinant human ALK5 (TGF-βR1) protein (Homo sapiens, UniProt P36897); experiment: Biochemical ALK5 (TGF-βR1) assay to measure pKi (LANCE Ultra ULight kinase assay); conditions: apparent pKi, converted from pIC50 by Cheng-Prusoff
T1 construct: purchased Life Technologies PR9075A
T1 sequence (P36897 34-503): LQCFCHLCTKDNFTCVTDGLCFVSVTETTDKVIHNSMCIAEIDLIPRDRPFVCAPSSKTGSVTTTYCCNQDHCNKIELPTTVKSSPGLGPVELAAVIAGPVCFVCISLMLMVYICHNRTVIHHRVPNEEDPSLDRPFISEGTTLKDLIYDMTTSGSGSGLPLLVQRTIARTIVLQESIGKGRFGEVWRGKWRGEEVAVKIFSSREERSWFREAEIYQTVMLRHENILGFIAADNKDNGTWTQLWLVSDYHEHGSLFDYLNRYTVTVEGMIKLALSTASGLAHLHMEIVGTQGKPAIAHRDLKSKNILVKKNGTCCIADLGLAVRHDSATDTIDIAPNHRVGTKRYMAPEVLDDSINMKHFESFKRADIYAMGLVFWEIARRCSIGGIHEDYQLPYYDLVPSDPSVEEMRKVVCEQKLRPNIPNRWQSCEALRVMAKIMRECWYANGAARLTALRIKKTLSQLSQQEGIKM
Outline: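 Read-out was LANCE Ultra TR-FRET with a europium anti-phospho-Topo IIα Thr1342 antibody after EDTA quench. Kinase reaction ran 60 min at 37 °C with ATP added from a 125 μM 5× stock, after 60 min compound–enzyme equilibration at room temperature. Values are pKi from Cheng-Prusoff conversion of fitted pIC50.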

[2] = system: TGF-β-stimulated SMAD3 phosphorylation in BEAS-2B cells; experiment: Cellular ALK5 potency assay, inhibition of TGF-β stimulated pSMAD3 formation in BEAS-2B cells; assay type: cell-based; conditions: Homo sapiens, pSMAD3, TGF-β 10 ng/mL, read-out: BEAS2B pIC50 (converted)
Outline: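 Human lung epithelial BEAS-2B cells were pre-treated with compound for 1 h at 37 °C, then stimulated with TGF-β (final 10 ng/mL) for 30 min before lysis. pSMAD3 was quantified by AlphaLISA and pIC50 derived from dose-dependent signal change versus TGF-β-stimulated untreated cells.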

Row | Ki [1] | Compound | IC50 [2]
1 | 0.0398 to 0.316 nM | Cc1cccc(-c2nccc(Nc3ccnc(Nc4ccc(C)c(CN5CCN(C)CC5)c4)n3)n2)n1 [Compound 311, N2-[4-methyl-3-[(4-methylpiperazin-1-yl)methyl]phenyl]-N4-[2-(6-methyl-2-pyridyl)pyrimidin-4-yl]pyrimidine-2,4-diamine] | 25.1 to 158 nM
2 | 0.0398 to 0.316 nM | COC(=O)c1cc(Nc2nccc(Nc3ccnc(-c4cccc(C)n4)n3)n2)ccc1N1CCNCC1 [Compound 312, methyl 5-[[4-[[2-(6-methyl-2-pyridyl)pyrimidin-4-yl]amino]pyrimidin-2-yl]amino]-2-piperazin-1-yl-benzoate] | 25.1 to 158 nM
3 | 0.0398 to 0.316 nM | Cc1cccc(-c2nccc(Nc3ccnc(Nc4ccc(CN5CCC(C(=O)O[C@@H]6CCNC6)CC5)cc4)n3)n2)n1 [Compound 313, [(3R)-pyrrolidin-3-yl] 1-[[4-[[4-[[2-(6-methyl-2-pyridyl)pyrimidin-4-yl]amino]pyrimidin-2-yl]amino]phenyl]methyl] piperidine-4-carboxylate] | 25.1 to 158 nM
4 | 0.0398 to 0.316 nM | Fc1cc(F)c(-c2nccc(Nc3ccnc(Nc4ccc(N5CCC(N6CCCC6)CC5)cc4)n3)n2)cc1Cl [Compound 314, N4-[2-(5-chloro-2,4-difluoro-phenyl)pyrimidin-4-yl]-N2-[4-(4-pyrrolidin-1-yl-1-piperidyl)phenyl]pyrimidine-2,4-diamine] | 25.1 to 158 nM
5 | 0.0398 to 0.316 nM | Cc1cccc(-c2nccc(Nc3ccnc(Nc4cccc(N)c4)n3)n2)n1 [Compound 315, N2-(3-aminophenyl)-N4-[2-(6-methyl-2-pyridyl)pyrimidin-4-yl]pyrimidine-2,4-diamine] | ≤ 20 nM
6 | 0.398 to 3.16 nM | CC(=O)Nc1ccc(Nc2nccc(Nc3ccnc(-c4cccc(C)n4)n3)n2)cc1 [Compound 316, N-[4-[[4-[[2-(6-methyl-2-pyridyl)pyrimidin-4-yl]amino]pyrimidin-2-yl]amino]phenyl]acetamide] | 25.1 to 158 nM
7 | 0.0398 to 0.316 nM | Cc1cccc(-c2nccc(Nc3ccnc(Nc4ccc(C(=O)N5CCN(C(C)C)CC5)cc4)n3)n2)n1 [Compound 317, (4-isopropylpiperazin-1-yl)-[4-[[4-[[2-(6-methyl-2-pyridyl)pyrimidin-4-yl]amino]pyrimidin-2-yl]amino]phenyl]methanone] | 25.1 to 158 nM
8 | 0.0398 to 0.316 nM | Cc1cccc(-c2nccc(Nc3ccnc(Nc4ccc(CN5CCCC(C(=O)OCC6CNC6)C5)cc4)n3)n2)n1 (centres unmarked) [Compound 318, azetidin-3-ylmethyl 1-[[4-[[4-[[2-(6-methyl-2-pyridyl)pyrimidin-4-yl]amino]pyrimidin-2-yl]amino]phenyl]methyl] piperidine-3-carboxylate] | 25.1 to 158 nM
9 | 0.0398 to 0.316 nM | Cc1cccc(-c2nccc(Nc3ccnc(Nc4ccc(CN5CCCC(C(=O)NC6CCNCC6)C5)cc4)n3)n2)n1 (centres unmarked) [Compound 320, 1-[[4-[[4-[[2-(6-methyl-2-pyridyl)pyrimidin-4-yl]amino]pyrimidin-2-yl]amino]phenyl]methyl]-N-(4-piperidyl)piperidine-3-carboxamide] | 25.1 to 158 nM
10 | 0.398 to 3.16 nM | Cc1cccc(-c2nccc(Nc3ccnc(Nc4ccc(NCCO)cc4)n3)n2)n1 [Compound 321, 2-[4-[[4-[[2-(6-methyl-2-pyridyl)pyrimidin-4-yl]amino]pyrimidin-2-yl]amino]anilino]ethanol] | 25.1 to 158 nM
11 | 0.0398 to 0.316 nM | Cc1cccc(-c2nccc(Nc3ccnc(Nc4cccc(N5CCNCC5)c4)n3)n2)n1 [Compound 322, N4-[2-(6-methyl-2-pyridyl)pyrimidin-4-yl]-N2-(3-piperazin-1-ylphenyl)pyrimidine-2,4-diamine] | 25.1 to 158 nM
12 | 0.398 to 3.16 nM | Cc1cccc(-c2nccc(Nc3ccnc(Nc4nc(C(=O)O[C@H]5CCN(C)C5)cs4)n3)n2)n1 [Compound 323, [(3S)-1-methylpyrrolidin-3-yl] 2-[[4-[[2-(6-methyl-2-pyridyl)pyrimidin-4-yl]amino]pyrimidin-2-yl]amino]thiazole-4-carboxylate] | 25.1 to 158 nM
13 | 0.0398 to 0.316 nM | Cc1cccc(-c2nccc(Nc3ccnc(Nc4ccc(N5CCC(N)CC5)cc4)n3)n2)n1 [Compound 324, N2-[4-(4-amino-1-piperidyl)phenyl]-N4-[2-(6-methyl-2-pyridyl)pyrimidin-4-yl]pyrimidine-2,4-diamine] | 25.1 to 158 nM
14 | 3.98 to 31.6 nM | Cc1cccc(-c2nccc(Nc3ccnc(Nc4ncc(C(=O)OC5CNC5)s4)n3)n2)n1 [Compound 325, azetidin-3-yl 2-[[4-[[2-(6-methyl-2-pyridyl)pyrimidin-4-yl]amino]pyrimidin-2-yl]amino]thiazole-5-carboxylate] | 25.1 to 158 nM
15 | 0.0398 to 0.316 nM | CN1CCN(C2CCN(c3ccc(Nc4nccc(Nc5ccnc(-c6cc(Cl)c(F)cc6F)n5)n4)cc3)CC2)CC1 [Compound 326, N4-[2-(5-chloro-2,4-difluoro-phenyl)pyrimidin-4-yl]-N2-[4-[4-(4-methylpiperazin-1-yl)-1-piperidyl]phenyl]pyrimidine-2,4-diamine] | 200 to 1260 nM
16 | ≤ 0.0316 nM | Cc1cccc(-c2nccc(Nc3ccnc(Nc4csc(C(=O)NC5CNC5)c4)n3)n2)n1 [Compound 327, N-(azetidin-3-yl)-4-[[4-[[2-(6-methyl-2-pyridyl)pyrimidin-4-yl]amino]pyrimidin-2-yl]amino]thiophene-2-carboxamide] | 25.1 to 158 nM
17 | 0.0398 to 0.316 nM | Cc1cccc(-c2nccc(Nc3ccnc(Nc4ccc(-c5cn(C)nn5)cc4)n3)n2)n1 [Compound 328, N4-[2-(6-methyl-2-pyridyl)pyrimidin-4-yl]-N2-[4-(1-methyltriazol-4-yl)phenyl]pyrimidine-2,4-diamine] | ≤ 20 nM
18 | 0.398 to 3.16 nM | Cc1cccc(-c2nccc(Nc3ccnc(Nc4nc(CN5CCN[C@@H](CO)C5)cs4)n3)n2)n1 [Compound 329, [(2R)-4-[[2-[[4-[[2-(6-methyl-2-pyridyl)pyrimidin-4-yl]amino]pyrimidin-2-yl]amino]thiazol-4-yl]methyl]piperazin-2-yl]methanol] | 25.1 to 158 nM
19 | 0.0398 to 0.316 nM | Cc1cccc(-c2nccc(Nc3ccnc(Nc4ccc(NC(=O)N5CCN(C)CC5)cc4)n3)n2)n1 [Compound 330, 4-methyl-N-[4-[[4-[[2-(6-methyl-2-pyridyl)pyrimidin-4-yl]amino]pyrimidin-2-yl]amino]phenyl]piperazine-1-carboxamide] | 25.1 to 158 nM
20 | ≤ 0.0316 nM | Cc1cccc(-c2nccc(Nc3ccnc(Nc4ccc(C5=CCNC5)cc4)n3)n2)n1 [Compound 331, N2-[4-(2,5-dihydro-1H-pyrrol-3-yl)phenyl]-N4-[2-(6-methyl-2-pyridyl)pyrimidin-4-yl]pyrimidine-2,4-diamine] | ≤ 20 nM
21 | 3.98 to 31.6 nM | Cc1cccc(-c2nccc(Nc3ccnc(Nc4ccc(-c5cn(Cc6ccccc6)nn5)cc4)n3)n2)n1 [Compound 333, N2-[4-(1-benzyltriazol-4-yl)phenyl]-N4-[2-(6-methyl-2-pyridyl)pyrimidin-4-yl]pyrimidine-2,4-diamine] | 25.1 to 158 nM

Row | Compound | Ki [1] | IC50 [2]
22 | Cc1cccc(-c2nccc(Nc3ccnc(Nc4cccc(CN5CC6CCC(C5)N6)c4)n3)n2)n1 [Compound 332, N2-[3-(3,8-diazabicyclo[3.2.1]octan-3-ylmethyl)phenyl]-N4-[2-(6-methyl-2-pyridyl)pyrimidin-4-yl]pyrimidine-2,4-diamine] | 0.0398 to 0.316 nM | 25.1 to 158 nM
